Laboratory results as given in patent US6858718B1, “Hydrogen production” (Melis Energy, priority 2001, dated 2005).
“Also recorded” adds a separate entry of the source. Like-named read-outs stand apart in the source and are kept apart here.

Assays:
hydrogenase activity = test: In vivo hydrogenase activity (H2 evolution) of anaerobically adapted cells in the presence of inhibitors of the photosynthetic electron flow; format: cell-based, Scenedesmus obliquus; conditions: for Effect on H2 photoproduction / hydrogenase activity (in words): S. obliquus cells after anaerobic adaptation
Method: (§1) The in vivo activity in the presence of different inhibitors of the photosynthetic electron flow was determined as described by Happe et al., in: European Journal of Biochemistry, 214, 475-481 (1993). After anaerobic adaptation, algal cells were harvested, diluted in fresh Tris acetate phosphate medium, and transferred to sealed tubes. Inhibitors were added 1 hour before H2 evolving activity was measured. Cells were broken by sonification. […] Ferrodoxin of both C. reinhardtii and S. obliquus was isolated according to the method of Schmitter et al. (Eur. J.l of Biochem., 172, pages 405-412 (1988)).
Hydrogenase activity was determined in intact and broken cells after anaerobic adaptation. […] This rate corresponds to 85% of the oxygen evolution measure with intact Scenedesmus cells.
In S. obliquus, the hydrogen evolution is linked to the photosynthetic electron transport chain through PSI. […] With reference to Table II, after anaerobic adaptation, cells were harvested, diluted in fresh, TAP medium, and incubated with inhibitors as described herein. α-PetF-antibody was raised against spinach ferredoxin. In Table II, DCMU=3-(3,4-dichlorophenyl)-1,1-dimethylurea; DBMIB=2,5-dibromo-3-methyl-6 isopropyl-p-benzochinone; Sulfo-DSPD=sulfodisalicylidinepropanediamin; DCPIP=2,6-dichlorophenolindophenol. The electron transport from PSI to ferredoxin was inhibited using the artificial electron acceptor DCPIP. In this reaction, DCPIP is reduced instead of ferredoxin and electron transfer to hydrogenase is interrupted.

H2-evolution = conditions: C. reinhardtii, stated as known; cited from earlier work
[1] = test system: purified S. obliquus hydrogenase; test: Electron transfer properties of electron donors measured in vitro with dithionite as reducing reagent; format: biochemical, Scenedesmus obliquus; conditions: for H2-evolving activities: ferredoxin as electron donor, dithionite as reducing reagent
Method: (§2) The in vitro hydrogenase activity was measured by using a Hewlett Packard (HP 5890, Series II) gas chromatograph, equipped with a thermal conductivity detector and a molecular sieve column. Methyl viologen reduced by sodium dithionite was used as an electron donor. 1 unit is defined as the amount of hydrogenase evolving 1 mmol of molecular hydrogen (H2) per minute at 25° C.
as §1
The electron transfer properties of different plant-type ferredoxins were measured in vitro with dithionite as a reducing reagent. […] In this assay, H2-evolving activities of 420, 390 and 350 U/mg protein with S. obliquus, C. reinhardtii and spinach ferredoxin, respectively, were observed. […] In D. desulfuricans, the Fe-hydrogenase has been reported to catalyze both hydrogen production and uptake with low potential multiheme cytochromes such as cytochrome c3.

[2] = test system: iron hydrogenase from C. reinhardtii; test: Biochemical data of purified iron hydrogenase, hydrogen evolution assay with reduced methyl viologen; parameters: species or system Chlamydomonas reinhardtii
Method: Hydrogenase activity of C. reinhardtii was determined in vitro with reduced methyl viologen using a gas chromatograph (Hewlett Packard 5890 Å Series II, column: molecular Sieve 5 Å, Mesh 60/80). The assay, containing in a final volume of 2 mL Pipes pH 6.8 (20 mM), Na2S2O4 (20 mM), MV (5 mM), was incubated anaerobically at 25° C. for 20 min. One unit is defined as he amount of hydrogenase evolving 1 μmol H2 per minute.
Cells from a 40-L culture of C. reinhardtii were harvested by ultra filtration through an Amicon Ultrafiltration System DC 10 LA, with a hollow-fiber filter. The pellet was resuspended in 200 mL TAP medium. After anaerobic adaptation by flushing the solution with argon for 1 h in the dark, all steps were performed under strictly anaerobic conditions. The isolated Fe-hyrogenase was chemically cleaved by cyanogen brormide (CNBr). After separation of he CNBr fragments on an SDS polyacrylamide gel, four peptides were blotted onto a poly(vinylidene difluoride) membrane and were sequenced. Automated Edman degradation was performed with an Applied Biosystem model 477 A sequencer with online analysator model 120 A.
To verify that the hydA ORF encodes the Fe-hydrogenase of C. reinhardtii, the enzyme was purified according to Happe and Naber (Eur. J. Biochem. 214,475-481 (1993)). The purified protein was able to evolve hydrogen, when incubated with reduced methyl viologen. After proteolytic digestion with cyanogen bromide, four bands of 4, 8, 9 and 11 kDa were detected after SDSIPAGE separation (data not shown). Two fragments (9 and 11 kDa) were sequenced by Edman degradation. […] The two fragment sequences are identical with he deduced amino-acid sequence of hydA (sequences are shadowed in gray in FIG. 6). The fragment corresponding to the cDNA region between 158 and 1636 bp of hydA was NdeI-BamHI cloned into the expression vector pET9a. The heterologous expressed protein was detected using antibodies raised against the Fe-hydrogenase. Both the purified Fe-hydrogenase of C. reinhardtii and the overexpressed enzyme had the same size (47.5 kDa). […] (ibid) who also detected no H2-production of the recombinant expressed Fe-hydrogenase from Desulfovibrio vulgaris in E. coli cells. An explanation might be the inability of E. coli to assemble the unique active site of the Fe-hydrogenases. It is known that E. coli has only three NiFe-hydrogenases with a different maturation system for the catalytic center.

[3] = test system: iron hydrogenase from S. obliquus; test: as above; parameters: species or system Scenedesmus obliquus
Method: as §2
40-liter cultures of Scenedesmus obliquus were grown heterotrophically. After centrifugation (10 min, 5000×g) the pellet we re-suspended in 200 ml TAP medium. The cells were anaerobically adapted by flushing the solution with argon for 1 hour in the dark. All further purification steps were performed in an anaerobic chamber (Coylab, Ann Arbor, Mich., USA). The cells were disrupted in a 50 mM Tris/HCl, buffer pH 8.0, 10 mM sodium dithionite by vortexing 3 min with glass beads. The further purification steps were made as described hereinbelow for the isolation of the Fe-hydrogenase of Chlamydomonas reinhardti. Automated Edman degradation of the N-terminal site of the protein was performed with an Applied Biosystem model 477A sequencer with online analysator model 120 A.
The N-terminal sequence of HydA was determined by Edman degradation.

[4] = Hydrogenase activity of lysate of induced E. coli cells expressing C. reinhardtii hydA; format: cell-based, Escherichia coli; conditions: lysate of the induced E. coli cells
Method: The hydA gene, corresponding to amino acids 57-497, was amplified, confirmed by sequences analysis and cloned into corresponding sites of he pET9a expression vector (Promega). The constructed plasmid was then ransformed into E. coli strain BL21(DE3). After induction with 1 mM isopropyl-thio-β-D-galactoside, the cells were resuspended in lysis buffer. Crude extracts from C. reinhardtii were isolated by harvesting cells after indicated anaerobic adaptation times. The pellet was resuspended in solubilization buffer and incubated with vigorous vortexing at RT for 30 min. The protein extracts from C. reinhardtii and E. coli were separated by 12% SDS/PAGE and blotted onto a poly(vinylidenedifluoride) membrane. Affinity-purified antibodies were diluted 1:200 and used for Western blot analyses.
To verify that the hydA ORF encodes the Fe-hydrogenase of C. reinhardtii, the enzyme was purified according to Happe and Naber (Eur. J. Biochem. 214,475-481 (1993)). […] After proteolytic digestion with cyanogen bromide, four bands of 4, 8, 9 and 11 kDa were detected after SDSIPAGE separation (data not shown). […] The heterologous expressed protein was detected using antibodies raised against the Fe-hydrogenase. […] (ibid) who also detected no H2-production of the recombinant expressed Fe-hydrogenase from Desulfovibrio vulgaris in E. coli cells. […]

[5] = Hydrogenase activity of lysate of induced E. coli cells expressing S. obliquus hydA; format: cell-based, Escherichia coli
[6] = broken cells, inhibitor 10^−4 M
[7] = broken cells, inhibitor 10^−5 M
[8] = intact cells, inhibitor 10^−5 M, added 1 hour before measurement
[9] = methyl viologen, read-out: KM value (MV)

Q: Which “Effect on H2 photoproduction / hydrogenase activity (in words)” value (hydrogenase activity) does the source give for “sulfodisalicylidinepropanediamin [sulfo-DSPD]” here?
A: specifically blocked

Q: What about the “Reduction of hydrogenase activity” value (hydrogenase activity; S. obliquus, Table II) of the same molecule?
A: up to 30 fold

Q: What about the Hydrogenase activity (hydrogenase activity; [6]) of the same molecule?
A: 0.003 Units/mg chlorophyll

Q: Which “Effect on H2 photoproduction / hydrogenase activity (in words)” value (hydrogenase activity) does the source give for `CN(C)C(=O)Nc1ccc(Cl)c(Cl)c1` [DCMU, 3-(3,4-dichlorophenyl)-1,1-dimethylurea] here?
A: still able to photoproduce hydrogen; also recorded: not influenced

Q: What about the Hydrogenase activity (hydrogenase activity; [7]) of the same molecule?
A: 0.11 Units/mg chlorophyll

Q: And the Hydrogenase activity (hydrogenase activity; [8])?
A: 0.10 Units/mg chlorophyll

Q: And the “Effect on H2 photoproduction (in words)” value (H2-evolution)?
A: still able to photoproduce hydrogen

Q: With “C. reinhardtii ferredoxin: plant-type [2Fe-2S] ferredoxin isolated from C. reinhardtii” as the molecule, how does the H2-evolving activities [1] read?
A: 390 U/mg protein

Q: Which results are given for `[C-]#[O+]` [CO]?
A: Inhibition of the enzyme (in words) [2]: strongly inhibited; Inhibition of the enzyme (in words) [3]: strongly inhibited

Q: Which “Inhibition of the enzyme (in words)” value [2] does the source give for `O=O` [O2] here?
A: strongly inhibited

Q: What about the “Inhibition of the enzyme (in words)” value [3] of the same molecule?
A: strongly inhibited

Q: And the “Inhibition of the enzyme (in words)” value ([3]; listed as oxygen)?
A: irreversibly inactivated

Q: Which results are given for `CC1=C(Br)C(=O)C(C(C)C)=C(Br)C1=O` [DBMIB, 2,5-dibromo-3-methyl-6 isopropyl-p-benzochinone]?
A: Effect on H2 photoproduction / hydrogenase activity (in words) (hydrogenase activity): inhibition of the H2-production; Hydrogenase activity (hydrogenase activity; [7]): 0.006 Units/mg chlorophyll; Hydrogenase activity (hydrogenase activity; [8]): 0.005 Units/mg chlorophyll; Effect on H2 photoproduction (in words) (H2-evolution): no H2-evolution

Q: For `O=C1C(Cl)=CC(=Nc2ccc(O)cc2)C=C1Cl` [DCPIP, 2,6-dichlorophenolindophenol], which Hydrogenase activity (hydrogenase activity; [6]) is on record?
A: 0.003 Units/mg chlorophyll

Q: Which “Hydrogen production with other possible electron donors (in words)” value ([1]; in vitro, purified S. obliquus hydrogenase) does the source give for `NC(=O)C1=CN([C@@H]2O[C@H](COP(=O)(O)OP(=O)(O)OC[C@H]3O[C@@H](n4cnc5c(N)ncnc54)[C@H](OP(=O)(O)O)[C@@H]3O)[C@@H](O)[C@H]2O)C=CC1` [NADPH, reference compound] here?
A: No hydrogen production

Q: For “spinach ferredoxin: plant-type [2Fe-2S] ferredoxin of spinach”, which H2-evolving activities [1] is on record?
A: 350 U/mg protein

B1: C. reinhardtii iron hydrogenase: Fe-hydrogenase HydA from Chlamydomonas reinhardtii, mature polypeptide of 441 amino acids, SEQ. ID. NO. 5 precursor (protein)
chain: AAPAAEAPLSHVQQALAELAKPKDDPTRKHVCVQVAPAVRVAIAETLGLAPGATTPKQLAEGLRRLGFDEVFDTLFGADLTIMEEGSELLHRLTEHLEAHPHSDEPLPMFTSCCPGWIAMLEKSYPDLIPYVSSCKSPQMMLAAMVKSYLAEKKGIAPKDMVMVSIMPCTRKQSEADRDWFCVDADPTLRQLDHVITTVELGNIFKERGINLAELPEGEWDNPMGVGSGAGVLFGTTGGVMEAALRTAYELFTGTPLPRLSLSEVRGMDGIKETNITMVPAPGSKFEELLKHRAAARAEAAAHGTPGPLAWDGGAGFTSEDGRGGITLRVAVANGLGNAKKLITKMQAGEAKYDFVEIMACPAGCVGGGGQPRSTDKAITQKRQAALYNLDEKSTLRRSHENPSIRELYDTYLGEPLGHKAHELLHTHYVAGGVEEKDEKK
Q: For B1, which Km ([2]; ferredoxin, read-out: KM value (ferredoxin)) is on record?
A: 35 µM

Q: What about the Km [2, 9] of the same molecule?
A: 830 µM

Q: And the Specific activity ([2]; purified enzyme)?
A: 935 U/mg protein

Q: And the pI value ([2]; purified enzyme)?
A: 5.3

Q: What about the “Hydrogenase activity of lysate (in words)” value [4] of the same molecule?
A: No hydrogenase activity

B2: S. obliquus iron hydrogenase: monomeric iron hydrogenase (HydA) of 44.5 kDa from Scenedesmus obliquus, SEQ. ID. NO. 4; recombinant form expressed in E. coli (protein, listed as Scenedesmus obliquus)
chain: MPEWQPGGRYAVSVRPPVNRRAVVAAERRRLVVRAAGPTAECDCPPAPAPKAPHWQQTLDELAKPKEQRKVMIAQIAPAVRVAIAETMGLNPGDVTVGQMVTGLRMLGFDYVFDTLFGADLTIMEEGTELLHRLQDHLEQHPNKEEPLPMFTSCCPGWVAMVEKSNPELIPYLSSCKSPQMMLGAVIKNYFAAEAGAKPEDICNVSVMPCVRKQGEADREWFNTTGAGGANVDHVMTTAELGKIFVERGIKLNDLQETPFDNPVGEGSGGVLFGTTGGVMEAALRTVYEVVTQKPLDRIVFEDVRGLEGIKESTLHLTPGPTSPFKAFAGADGTGITLNIAVANGLGNAKKLIKQLAAGESKYDFIEVMACPGGCIGGGGQPRSADKQILQKRQAAMYDLDERAVIRRSHENPLIGALYEKFLGEPNGHKAHELLHTHYVAGGVPDEK
Q: Which “Hydrogenase activity of lysate (in words)” value [5] does the source give for B2 here?
A: no hydrogenase activity

Q: What about the Km [3, 9] of the same molecule?
A: 800 µM

Q: What about the Specific activity ([3]; purified enzyme) of the same molecule?
A: 700 U/mg protein

Q: And the pI value ([3]; purified enzyme)?
A: 5.17
